{"source": "patent US11856951B2", "about": "“Method for managing resistance to insecticidal traits and chemicals using pheromones” (Provivi, Inc., priority 2015, dated 2024)", "origin": "cited, not measured here", "key": {"H. armigera males": {"tested_on": "H. armigera males", "settings": "wind tunnel assays"}, "mated female H. armigera": {"tested_on": "mated female H. armigera", "settings": "mated females"}}, "data": [{"smiles": "CCCC/C=C\\CCCCCCCCCCO", "note": "[Z11-16:OH]", "values": [{"measurement": "effect on male upwind flight", "setting": "H. armigera males", "value": "inhibits male upwind flight"}]}, {"smiles": "CCCCCCCCCCCCCC(=O)O", "note": "[C14:0]", "values": [{"measurement": "electroantennogram response", "setting": "mated female H. armigera", "value": "strong electroantennogram responses"}]}, {"smiles": "O=Cc1ccccc1", "note": "[benzaldehyde]", "values": [{"measurement": "attractiveness of an oviposition substrate", "setting": "mated H. armigera", "value": "significantly increase the attractiveness"}]}, {"smiles": "CCCC(C)CCCC(C)CCCC(C)C(=O)OC", "note": "(centres unmarked) [TMTD, methyl 2,6,10-trimethyltridecanoate]", "values": [{"measurement": "attraction to lures", "setting": "Female E. heros", "value": "attracted"}]}, {"smiles": "C=C", "note": "[ethylene]", "values": [{"measurement": "correlation of concentration with calling behaviour", "setting": "virgin female H. zea", "value": "positively correlated"}]}, {"smiles": "CCCCCCC=O", "note": "[Heptanal]", "values": [{"measurement": "attractiveness of an oviposition substrate", "setting": "mated H. armigera", "value": "significantly increase the attractiveness"}]}, {"smiles": "CCCCCCCCCCCCCCCCCC(=O)O", "note": "[C18:0]", "values": [{"measurement": "electroantennogram response", "setting": "mated female H. armigera", "value": "strong electroantennogram responses"}]}, {"smiles": "CCCCCCCCCCCCCCCC(=O)O", "note": "[C16:0]", "values": [{"measurement": "electroantennogram response", "setting": "mated female H. armigera", "value": "strong electroantennogram responses"}]}]}
